These compounds were tested against T1, SIRT1 (Homo sapiens, UniProt Q96EB6) (assay: Trp mass spectrometry assay of SIRT1 activation). Details: Trp mass spectrometry assay; EC1.5 = concentration of test compound that results in 150% activation of SIRT1.
T1 sequence (Q96EB6 1-747): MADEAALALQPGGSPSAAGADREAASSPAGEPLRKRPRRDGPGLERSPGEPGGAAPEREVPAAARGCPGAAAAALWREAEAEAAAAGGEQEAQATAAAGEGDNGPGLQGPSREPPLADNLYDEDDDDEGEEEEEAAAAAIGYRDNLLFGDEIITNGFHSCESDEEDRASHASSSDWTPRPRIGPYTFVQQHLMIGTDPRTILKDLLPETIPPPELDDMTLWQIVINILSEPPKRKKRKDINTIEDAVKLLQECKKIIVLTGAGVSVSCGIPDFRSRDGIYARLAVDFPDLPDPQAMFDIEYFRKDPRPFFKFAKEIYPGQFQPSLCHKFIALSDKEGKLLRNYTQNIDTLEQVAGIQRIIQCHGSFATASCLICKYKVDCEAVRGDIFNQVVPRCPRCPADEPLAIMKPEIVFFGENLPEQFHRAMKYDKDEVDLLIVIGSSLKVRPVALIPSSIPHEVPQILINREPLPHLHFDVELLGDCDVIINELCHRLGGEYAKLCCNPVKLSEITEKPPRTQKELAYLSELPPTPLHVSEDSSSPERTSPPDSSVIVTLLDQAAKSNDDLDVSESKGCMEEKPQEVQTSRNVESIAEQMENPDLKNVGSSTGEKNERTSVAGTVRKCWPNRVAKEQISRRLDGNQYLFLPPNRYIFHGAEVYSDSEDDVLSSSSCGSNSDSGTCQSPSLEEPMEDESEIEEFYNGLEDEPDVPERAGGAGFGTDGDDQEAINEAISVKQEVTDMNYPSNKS
Type: biochemical
Outline: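 Activation read-out: mass-spec measurement of O-acetyl-ADP-ribose or deacetylated Trp peptide versus compound-free controls, giving EC1.5 and Percent Maximum Activation. Reactions ran 25 min at 25 °C, pH 7.5, with 120 μM βNAD+, 0.5 μM acetylated p53-derived peptide and 10 nM His-tagged SIRT1.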

Compound | Tryp AVG EC1.5 (μM)
O=C(Nc1ccccn1)N1c2nc(-c3cncc(F)c3)ccc2N2CCC1CC2 [Example 570] | B (B (EC1.5 1-25 μM))
O=C(Nc1cncc(F)c1)N1c2nc(-c3cncc(F)c3)ccc2N2CCC1CC2 [Example 571] | B (B (EC1.5 1-25 μM))
O=C(Nc1cccnc1)N1c2nc(-c3cncc(F)c3)ccc2N2CCC1CC2 [Example 572] | B (B (EC1.5 1-25 μM))
O=C(Nc1ccncn1)N1c2nc(-c3cncc(F)c3)ccc2N2CCC1CC2 [Example 573] | C (C (EC1.5>25 μM))
O=C(Nc1cccc(-c2cnco2)c1)N1c2nc(-c3cncc(F)c3)ccc2N2CCC1CC2 [Example 574] | A (A (EC1.5<1 μM))
O=C(Nc1cccc(-c2cnco2)c1)N1c2nc(-c3cncc(Cl)c3)ccc2N2CCC1CC2 [Example 575] | A (A (EC1.5<1 μM))
O=C(Nc1ccncn1)N1c2nc(-c3cncc(Cl)c3)ccc2N2CCC1CC2 [Example 576] | B (B (EC1.5 1-25 μM))
Cc1nc(NC(=O)N2c3nc(-c4cncc(F)c4)ccc3N3CCC2CC3)sc1C [Example 577] | B (B (EC1.5 1-25 μM))
COc1cc(NC(=O)N2c3nc(-c4cncc(F)c4)ccc3N3CCC2CC3)nc(OC)n1 [Example 578] | B (B (EC1.5 1-25 μM))
COc1cc(NC(=O)N2c3nc(-c4cncc(F)c4)ccc3N3CCC2CC3)ncn1 [Example 579] | B (B (EC1.5 1-25 μM))
O=C(Nc1ccc(-n2cncn2)cc1)N1c2nc(-c3cncc(C(F)(F)F)c3)ccc2N2CC[C@H]1C2 [Example 580] | A (A (EC1.5<1 μM))
O=C(Nc1cccc(-n2cncn2)c1)N1c2nc(-c3cccc(C(F)(F)F)c3)ccc2N2CC[C@H]1C2 [Example 581] | A (A (EC1.5<1 μM))
Cc1ccc(-c2ccc(NC(=O)N3c4nc(-c5cccc(C(F)(F)F)c5)ccc4N4CC[C@H]3C4)cc2)o1 [Example 582] | B (B (EC1.5 1-25 μM))
Cc1nc(-c2cccc(NC(=O)N3c4nc(-c5cccc(C(F)(F)F)c5)ccc4N4CC[C@H]3C4)c2)cs1 [Example 583] | A (A (EC1.5<1 μM))
O=C(Nc1cccnc1)N1c2nc(-c3cnn(C4CCCC4)c3)ccc2N2CC[C@H]1C2 [Example 587] | B (B (EC1.5 1-25 μM))
O=C(Nc1cccc(-c2cnco2)n1)N1c2nc(-c3cccc(C(F)(F)F)c3)ccc2N2CC[C@H]1C2 [Example 588] | A (A (EC1.5<1 μM))
O=C(Nc1cc(-c2cnco2)ccn1)N1c2nc(-c3cccc(C(F)(F)F)c3)ccc2N2CC[C@H]1C2 [Example 589] | A (A (EC1.5<1 μM))
O=C(Nc1cccc(-c2cnco2)n1)N1c2nc(-c3cccc(C(F)(F)F)c3)ccc2N2CCC[C@H]1C2 [Example 590] | A (A (EC1.5<1 μM))
O=C(Nc1cc(-c2cnco2)ccn1)N1c2nc(-c3cccc(C(F)(F)F)c3)ccc2N2CCC[C@H]1C2 [Example 591] | A (A (EC1.5<1 μM))
CC(C)(C)OC(=O)N1CCC(c2cccc(NC(=O)N3c4nc(-c5cccc(C(F)(F)F)c5)ccc4N4CC[C@H]3C4)c2)C1 (some centres unmarked) [Example 592] | A (A (EC1.5<1 μM))
O=C(Nc1cccc(C2CCNC2)c1)N1c2nc(-c3cccc(C(F)(F)F)c3)ccc2N2CC[C@H]1C2 (some centres unmarked) [Example 593] | A (A (EC1.5<1 μM))
NC(=O)CN1CCC(c2cccc(NC(=O)N3c4nc(-c5cccc(C(F)(F)F)c5)ccc4N4CC[C@H]3C4)c2)C1 (some centres unmarked) [Example 594] | A (A (EC1.5<1 μM))
O=C(Nc1cc(-c2cnco2)ccn1)N1c2nc(-c3cccc(C(F)(F)F)c3)ccc2N2CCC1CC2 [Example 595] | A (A (EC1.5<1 μM))
O=C(Nc1cccc(-c2cnco2)n1)N1c2nc(-c3cccc(C(F)(F)F)c3)ccc2N2CCC1CC2 [Example 596] | A (A (EC1.5<1 μM))

Compound | Tryp AVG EC1.5 (μM)
O=C(NCc1ccccc1)N1c2nc(-c3cccc(C(F)(F)F)c3)ccc2N2CC[C@H]1C2 [Example 597] | B (B (EC1.5 1-25 μM))
O=C(NCCc1ccccc1)N1c2nc(-c3cccc(C(F)(F)F)c3)ccc2N2CC[C@H]1C2 [Example 598] | B (B (EC1.5 1-25 μM))
O=C(NCCCc1ccccc1)N1c2nc(-c3cccc(C(F)(F)F)c3)ccc2N2CC[C@H]1C2 [Example 599] | B (B (EC1.5 1-25 μM))
O=C(NCCCCc1ccccc1)N1c2nc(-c3cccc(C(F)(F)F)c3)ccc2N2CC[C@H]1C2 [Example 600] | B (B (EC1.5 1-25 μM))
O=C(Nc1ccccn1)N1c2nc(-c3cccc(C(F)(F)F)c3)ccc2N2C[C@@H](O)[C@H]1C2 [Example 601] | A (A (EC1.5<1 μM))
CC(=O)O[C@@H]1CN2C[C@H]1N(C(=O)Nc1ccccn1)c1nc(-c3cccc(C(F)(F)F)c3)ccc12 [Example 602] | B (B (EC1.5 1-25 μM))
O=C(O[C@@H]1CN2C[C@H]1N(C(=O)Nc1ccccn1)c1nc(-c3cccc(C(F)(F)F)c3)ccc12)c1ccccc1 [Example 603] | C (C (EC1.5>25 μM))
CC(C)(C)OC(=O)NCCn1cc(-c2cccc(NC(=O)N3c4nc(-c5cccc(C(F)(F)F)c5)ccc4N4CCC[C@H]3C4)c2)nn1 [Example 604] | A (A (EC1.5<1 μM))
CC(C)(C)OC(=O)NCc1cn(-c2cccc(NC(=O)N3c4nc(-c5cccc(C(F)(F)F)c5)ccc4N4CC[C@H]3C4)c2)nn1 [Example 605] | A (A (EC1.5<1 μM))
NCc1cn(-c2cccc(NC(=O)N3c4nc(-c5cccc(C(F)(F)F)c5)ccc4N4CC[C@H]3C4)c2)nn1 [Example 606] | A (A (EC1.5<1 μM))
O=C(CCCC[C@@H]1SC[C@@H]2NC(=O)N[C@@H]21)NCCCCCC(=O)NCc1cn(-c2cccc(NC(=O)N3c4nc(-c5cccc(C(F)(F)F)c5)ccc4N4CC[C@H]3C4)c2)nn1 [Example 607] | A (A (EC1.5<1 μM))
O=C1OC2(c3ccc(O)cc3Oc3cc(O)ccc32)c2ccc(NC(=S)NCc3cn(C4=CC(NC(=O)N5c6nc(-c7cccc(C(F)(F)F)c7)ccc6N6CC[C@H]5C6)CC=C4)nn3)cc21 (some centres unmarked) [Example 608] | C (C (EC1.5>25 μM))
CC(C)(C)OC(=O)N1CCc2ccc(NC(=O)N3c4nc(-c5cccc(C(F)(F)F)c5)ccc4N4CC[C@H]3C4)cc2C1 [Example 609] | B (B (EC1.5 1-25 μM))
CC(C)(C)OC(=O)N1CCCc2ccc(NC(=O)N3c4nc(-c5cccc(C(F)(F)F)c5)ccc4N4CC[C@H]3C4)cc21 [Example 610] | B (B (EC1.5 1-25 μM))
CC(C)(C)OC(=O)N1CCc2cc(NC(=O)N3c4nc(-c5cccc(C(F)(F)F)c5)ccc4N4CC[C@H]3C4)ccc2C1 [Example 611] | A (A (EC1.5<1 μM))
O=C(NCCCN1CCOCC1)N1c2nc(-c3cccc(C(F)(F)F)c3)ccc2N2CC[C@H]1C2 [Example 612] | B (B (EC1.5 1-25 μM))
O=C(NCCc1ccncc1)N1c2nc(-c3cccc(C(F)(F)F)c3)ccc2N2CC[C@H]1C2 [Example 613] | B (B (EC1.5 1-25 μM))
O=C(NCCc1ccccn1)N1c2nc(-c3cccc(C(F)(F)F)c3)ccc2N2CC[C@H]1C2 [Example 614] | B (B (EC1.5 1-25 μM))
O=C(NCCc1cccnc1)N1c2nc(-c3cccc(C(F)(F)F)c3)ccc2N2CC[C@H]1C2 [Example 615] | B (B (EC1.5 1-25 μM))
O=C(NCCN1CCOCC1)N1c2nc(-c3cccc(C(F)(F)F)c3)ccc2N2CC[C@H]1C2 [Example 616] | B (B (EC1.5 1-25 μM))
O=C(Nc1cccc(C(F)(F)F)c1)N1c2nc(-c3cccc(C(F)(F)F)c3)ccc2N2CC[C@H]1C2 [Example 617] | A (A (EC1.5<1 μM))
O=C(Nc1cccc(-c2ccc(C(F)(F)F)cn2)c1)N1c2nc(-c3cccc(C(F)(F)F)c3)ccc2N2CC[C@H]1C2 [Example 618] | B (B (EC1.5 1-25 μM))
Cc1ccc(-c2cccc(NC(=O)N3c4nc(-c5cccc(C(F)(F)F)c5)ccc4N4CC[C@H]3C4)c2)cc1C [Example 619] | C (C (EC1.5>25 μM))

Same assay, conditions: Trp mass spectrometry assay; percent maximum fold activation of SIRT1; read-out: Tryp % Fold Act

Compound | Emax
O=C(Nc1ccc(-n2cncn2)cc1)N1c2nc(-c3cncc(C(F)(F)F)c3)ccc2N2CC[C@H]1C2 [Example 580] | > 150%
O=C(CCCC[C@@H]1SC[C@@H]2NC(=O)N[C@@H]21)NCCCCCC(=O)NCc1cn(-c2cccc(NC(=O)N3c4nc(-c5cccc(C(F)(F)F)c5)ccc4N4CC[C@H]3C4)c2)nn1 [Example 607] | > 150%
O=C1OC2(c3ccc(O)cc3Oc3cc(O)ccc32)c2ccc(NC(=S)NCc3cn(C4=CC(NC(=O)N5c6nc(-c7cccc(C(F)(F)F)c7)ccc6N6CC[C@H]5C6)CC=C4)nn3)cc21 (some centres unmarked) [Example 608] | < 150%

Reference: patent publication US9834558B2, “Substituted bridged urea analogs as sirtuin modulators” (GLAXOSMITHKLINE LLC, priority 2013, dated 2017)
